{"source": "patent US11278555B2", "about": "“Combinational therapies for treatment of cancer comprising a bacteriochlorophyll derivative” (Yeda Research and Development Co. Ltd., priority 2016, dated 2022)", "system": "s.c. 4T1-luc breast tumors", "assay": "WST11 VTP with or without single dose CTX in mice bearing s.c. 4T1-luc tumors in the hind leg (Scheme 4)", "assay_type": "in vivo, Balb/c mice", "protocol": "• (i) Bacteriochlorophyll Derivatives—The Bchl derivatives and RGD-conjugates thereof were provided by Steba Biotech (Rehovot, Israel). […] Concentration was verified by spectrophotometric measurement. STL-7012 was provided as dipotassium salt. Working solution was prepared by dissolving STL-7012 K^+ salt in 5% mannitol solution (1 mg/ml). […] WST11 was supplied as a powder and kept in the dark at −20° C. Stock was prepared by dissolving WST11 in DDW containing 5% glucose and 0.67% mannitol, aliquoted and lyophilized. Working solution was reconstituted with DDW and the concentration of solution was confirmed spectrophotometrically. Alternatively, Clinical WST11 (batch: P00611, and 10-130611) was supplied as lyophilized formulation. Material was dissolved in 5% dextrose, aliquoted and stored at −20° C. […] Aliquots were thawed, diluted with saline to a desired concentration and used on the same day at a dose of 75 mg/kg. Cyclophosphamide (CTX, Endoxan®, Baxter Oncology Gmbh, Germany) was purchased from a local pharmacy. A stock solution of 20 mg/ml was prepared by dissolving in 0.9% NaCl, aliquoted and stored at −20° C. Aliquots were thawed, diluted with saline if needed to a desired concentration and used on the same day prepared at indicated doses. • (iii) Murine cell lines—Mammary luciferase (luc)-labeled 4T1 cell line (4T1-Luc) was a kind gift from Dr. Zvi Granot (Faculty of Medicine, The Hebrew University of Jerusalem, Israel); melanoma B16-F10 cell line was obtained from the American Type Culture Collection (ATCC, Manassas, Va.); bladder MB49 cell line was a kind gift from James Allison (MSKCC, New York, USA), and luc-labeled MB49-cell line was established using the murine stem cell virus (MSCV)-puromycin-luc-GFP construct (kindly provided by Dr. Emily Cheng, Human Oncology and Pathogenesis Program, MSKCC). 4T1 and MB49 cells were maintained in DMEM medium and B16-F10 cells in RPMI medium supplemented with 1 mmol/L sodium pyruvate, 10% fetal calf serum (FCS), 250 μg/ml hygromycin, 0.06 mg/ml penicillin and 0.1 mg/ml streptomycin. The cells were grown as monolayer at 37° C. in a humidified atmosphere (5% CO2, 95% air). • (iv) Murine tumor models—Female, Balb/c mice (6-8 week old) were grafted either subcutaneously (s.c.) into the right hind leg or orthotopically with 1×10^6 4T1 cells suspended in 50 or 1000 PBS. […] Whole body imaging of luciferase-transfected tumors and metastases were recorded five minutes following 75 mg Kg^−1 intraperitoneal (i.p.) injection of D-luciferin with respective filter sets. • (vi) PDT treatment protocol: 4T1-Luc cells were grafted in the mammary pad of Balb/c mice. […] Ablation of primary tumors was assessed every 7 days by imaging the tumor's luciferase-mediated bioluminescence signal, using IVIS.", "data": [{"compound": "CCC1c2cc3[n-]c(c(CC(=O)OC)c4nc(cc5[n-]c(cc(n2)C1C)c(C(C)=O)c5C)C(C)C4CCC(=O)[O-])c(C(=O)NCCS(=O)(=O)[O-])c3C.[K+].[K+].[Pd+2]", "note": "(stereo not drawn) [WST11, Palladium 3^1-oxo-15-methoxycarbonylmethyl-rhodobacteriochlorin 13^1-(2-sulfoethyl) amide dipotassium salt]", "values": [{"measurement": "primary tumor growth", "setting": "CTX 50 or 150 mg/kg alone, WST11 VTP at low light intensity (100 mW/cm^2) alone, or combination", "value": "unable to suppress primary tumor growth"}, {"measurement": "lung metastases", "setting": "VTP alone, even when primary tumor completely ablated", "value": "most of the mice subjected to VTP alone developed lung metastases"}, {"measurement": "time to tumor regrowth", "setting": "WST11 VTP at high light dose (150 mW/cm^2)", "value": "doubled"}]}]}
